Source: patent publication US4304903A, “D-Erythro-2,3-dihydroxy-1-(1-phenyl-1H-pyrazolo(3,4-b)quinoxalin-3-y l)-propyl-4-O-α-D-glucopyranosyl-alpha-D-glucopyranoside poly(H-sulfate)salts” (American Cyanamid Company, priority 1980, dated 1981)
Structures can show the parent of a compound that is named as a salt. Where two headings read alike, the source gives them in different places.

Columns and labels:
[1] = tested on: late components of human complement (C3-C9); experiment: Test Code 035 (C3-C9 inhibitor); type: biochemical; parameters: key: N = Inactive; conditions: serial twofold dilution assay; higher well number indicates higher activity; lysis of EAC 142
Source text: (§1) An active inhibitor protects C2 from C1 and C4; (ii) Test Code 035 (C3-C9 inhibitor)--This test determines the ability of the late components of human complement (C3-C9) to lyse EAC 142 in the presence of appropriate dilutions of the test compound. An active inhibitor protects EAC 142 from lysis by human C3-C9; (iii) Test Code 036 (C-Shunt inhibitor)--In this test human erythrocytes rendered fragile are lysed in autologous serum via the shunt pathway activated by cobra venom factor in the presence of appropriate dilutions of the test compound. Inhibition of the shunt pathway results in failure of lysis; (iv) Forssman Vasculitis Test--Here, the well known complement dependent lesion, Forssman vasculitis, is produced in guinea pigs by intradermal injection of rabbit anti-Forssman antiserum. […] Percent inhibition is calculated by comparison with simultaneous controls. […]

[2] = tested on: serum complement activity; experiment: Guinea Pig Intraperitoneal Test (GPIP); type: in vivo; conditions: Cavia porcellus, ip, 200 mg./kg. i.p.
Source text: An active inhibitor protects C2 from C1 and C4; (ii) Test Code 035 (C3-C9 inhibitor)--This test determines the ability of the late components of human complement (C3-C9) to lyse EAC 142 in the presence of appropriate dilutions of the test compound. An active inhibitor protects EAC 142 from lysis by human C3-C9; (iii) Test Code 036 (C-Shunt inhibitor)--In this test human erythrocytes rendered fragile are lysed in autologous serum via the shunt pathway activated by cobra venom factor in the presence of appropriate dilutions of the test compound. Inhibition of the shunt pathway results in failure of lysis; (iv) Forssman Vasculitis Test--Here, the well known complement dependent lesion, Forssman vasculitis, is produced in guinea pigs by intradermal injection of rabbit anti-Forssman antiserum. The lesion is measured in terms of diameter, edema and hemorrhage and the extent to which a combined index of these is inhibited by prior intraperitoneal injection of the test compound at 200 mg./kg. is then reported, unless otherwise stated; (v) Forssman Shock Test--Lethal shock is produced in guinea pigs by an i.v. injection of anti-Forssman antiserum and the harmonic mean death time of treated guinea pigs is compared with that of simultaneous controls; (vi) Complement Level Reduction Test--In this test, the above dosed guinea pigs, or others, are bled for serum and the complement level is determind in undiluted serum by the capillary tube method of U.S. Pat. No. 3,876,376 and compared to undosed control guinea pigs; (vii) Cap 50 Test--Here, appropriate amounts of the test compound are added to a pool of quinea Pig serum in vitro, after which the undiluted serum capillary tube assay referred to above is run. The concentration of compound inhibiting 50% is reported; (viii) Guinea Pig Intraperitoneal Test (GPIP)--Guinea pigs weighing about 300 g. are dosed intraperitoneally (i.p.) with 200 mg./kg. of the test compound dissolved in saline and adjusted to pH 7-8. […] Percent inhibition is calculated by comparison with simultaneous controls. […]

activated human C1 = molecular target: T1, activated human C1 (Homo sapiens, UniProt P09871); experiment: Test Code 026 (C1 inhibitor); type: biochemical; conditions: serial twofold dilution assay; higher well number indicates higher activity
T1 sequence (P09871 16-437 limits assumed): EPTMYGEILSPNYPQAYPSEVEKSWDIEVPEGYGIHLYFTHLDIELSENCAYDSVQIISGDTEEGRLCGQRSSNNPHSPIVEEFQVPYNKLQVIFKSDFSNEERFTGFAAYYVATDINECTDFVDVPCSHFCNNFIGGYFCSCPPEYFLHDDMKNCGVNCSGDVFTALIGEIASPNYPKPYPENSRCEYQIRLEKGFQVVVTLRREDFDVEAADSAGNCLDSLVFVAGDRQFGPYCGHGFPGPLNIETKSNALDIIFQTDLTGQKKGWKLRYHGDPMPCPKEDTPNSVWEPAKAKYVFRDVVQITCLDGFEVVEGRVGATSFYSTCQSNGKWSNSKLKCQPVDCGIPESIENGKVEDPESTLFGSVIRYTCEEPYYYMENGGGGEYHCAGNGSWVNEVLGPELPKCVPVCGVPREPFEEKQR
T1 sequence (P09871 438-688 limits assumed): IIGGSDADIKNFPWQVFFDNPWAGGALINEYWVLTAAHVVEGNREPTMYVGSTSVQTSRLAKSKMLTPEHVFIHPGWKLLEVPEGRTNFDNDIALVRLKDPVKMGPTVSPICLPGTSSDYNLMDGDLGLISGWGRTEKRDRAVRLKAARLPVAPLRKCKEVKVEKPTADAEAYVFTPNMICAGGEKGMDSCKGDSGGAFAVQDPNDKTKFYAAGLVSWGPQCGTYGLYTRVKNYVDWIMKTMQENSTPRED
Source text: as §1

026 In Vitro Activity (activity in wells) (activated human C1)	Structure (SMILES)	035 In Vitro Activity (activity in wells) [1]	inhibition at 200 mg/kg ([2]; 0.5 h, serum 30 minutes after injection, read-out: In Vivo Activity (Guinea Pig) (Intraperitoneal) % Inhibition, 30 minutes) [%]	inhibition at 200 mg/kg ([2]; 1 h, serum 60 minutes after injection, read-out: In Vivo Activity (Guinea Pig) (Intraperitoneal) % Inhibition, 60 minutes) [%]	inhibition at 200 mg/kg ([2]; 2 h, serum 120 minutes after injection, read-out: In Vivo Activity (Guinea Pig) (Intraperitoneal) % Inhibition, 120 minutes) [%]
–	O=S(=O)(O)OC[C@H]1O[C@H](O[C@@H](c2nn(-c3ccccc3)c3nc4ccccc4nc23)[C@@H](COS(=O)(=O)O)OS(=O)(=O)O)[C@H](OS(=O)(=O)O)[C@@H](OS(=O)(=O)O)[C@@H]1O[C@H]1O[C@H](COS(=O)(=O)O)[C@@H](OS(=O)(=O)O)[C@H](OS(=O)(=O)O)[C@H]1OS(=O)(=O)O [D-Erythro-2,3-dihydroxy-1-(1-phenyl-1H-pyrazolo[3,4-b]quinox] [D-Erythro-2,3-dihydroxy-1-(1-phenyl-1H-pyrazolo[3,4-b]quinoxalin-3-yl)propyl-4-O-α-D-glucopyranosyl-α-D-glucopyranoside, nonakis(H-sulfate), nonasalt with trimethylamine]	N	–	–	–
–	O=S(=O)(O)OC[C@H]1O[C@H](O[C@@H](c2nn(-c3ccccc3)c3nc4ccccc4nc23)[C@@H](COS(=O)(=O)O)OS(=O)(=O)O)[C@H](OS(=O)(=O)O)[C@@H](OS(=O)(=O)O)[C@@H]1O[C@H]1O[C@H](COS(=O)(=O)O)[C@@H](OS(=O)(=O)O)[C@H](OS(=O)(=O)O)[C@H]1OS(=O)(=O)O [D-Erythro-2,3-dihydroxy-1-(1-phenyl-1H-pyrazolo[3,4-b]quinoxalin-3-yl)propyl-4-O-α-D-glucopyranosyl-α-D-glucopyranoside, nonakis(H-sulfate), nonasodium salt]	–	-58	-56	-76
+5 wells	Cc1cc2nc3c([C@H](O[C@H]4O[C@H](COS(=O)(=O)O)[C@@H](O[C@H]5O[C@H](COS(=O)(=O)O)[C@@H](OS(=O)(=O)O)[C@H](OS(=O)(=O)O)[C@H]5OS(=O)(=O)O)[C@H](OS(=O)(=O)O)[C@H]4OS(=O)(=O)O)[C@@H](COS(=O)(=O)O)OS(=O)(=O)O)nn(-c4ccccc4)c3nc2cc1C [D-Erythro-2,3-dihydroxy-1-(6,7-dimethyl-1-phenyl-1H-pyrazolo[3,4-b]quinoxalin-3-yl)propyl-4-O-α-D-glucopyranosyl-α-D-glucopyranoside, nonakis(H-sulfate), nonasalt with trimethylamine]	+1 wells	–	–	–
